Measured values as given in US4508625A, “Magnetic separation using chelated magnetic ions” (priority 1983, dated 1985).

Key:
[1] = tested on: red blood cells; settings: 10 mM dithionite or 20 mM nitrite, cited from earlier work; for cell separation: 1.0 Tesla, 1.0 ml/minute, filtration times of more than one minute; for separation efficiency: 2.0 Tesla, unacceptably variable from sample to sample
[2] = tested on: human blood cells (whole blood); test: High-gradient magnetic separation (HGMS) filtration of cells from diluted whole blood; assay type: cell-based; settings: for Magnetic efficiency, E / Magnetic filtration, M / Mechanical Filtration, F / Total Filtration, T: 0.75 ml/min, 316L matrix
From the text: The samples were verified for normalcy (COULTER COUNTER Model S-Plus; Coulter Electronics, Inc.) before use on the day of drawing.
Separability of cells from carrier fluids was examined using a High-Gradient Magnetic Separation (HGMS) system. The filter was a D-shaped plastic chamber 13 mm long and 118 mm^2 in cross-section, filled with stainless steel wire as noted. Packing was random, but with the major component parallel to flow. […] Suspension flows upward through the filter were controlled by a variable-speed syringe pump, fitted with a 3 ml syringe to contain the cell suspension.
Unless otherwise noted, to clean the matrix and to clear the circuit of air, the filter was flushed manually with 15 ml of the experimental carrier solution before each separation determination. With the electromagnet still de-energized, the circuit was then overfilled rapidly with the corresponding cell suspension, and the syringe pump was activated. After 1.2 ml of cell suspension had been delivered at the chosen flow rate, a one-milliliter aliquot (Al) of filter effluent was collected for use in calculating mechanical filtration levels. With filter backflow prevented, the pump syringe was refilled, the magnet energized at the preselected field intensity, and the delivery and collection (aliquot A2) steps repeated. This sequence was repeated for each selected combination of flow rate and field intensity. A 2 ml control aliquot (A3) was taken for each suspension from the reservoir used to fill the filter and the syringe pump. The aliquots were analyzed for cell count and volume, count data (A1, A2, A3) being used to calculate filter characteristics as follows (for percentages, multiply by 100:)
Mechanical Filtration, F=(A3-A1)/A3
Magnetic filtration, M=(A1-A2)/A3
Magnetic efficiency, E=(A1-A2)/A1=M/(1-F)
Total Filtration, T=(A3-A2)/A3=M+F
The solution osmolarity was adjusted to that of 40 mM erbium chloride by addition of sodium chloride. In a second experiment, 10 mM sodium dithionite in isotonic saline buffered with phosphate was employed.
Erbium chloride was dissolved in water via chelation with EDTA. Carrier solutions of 100 cc each, containing erbium chloride in the concentration of 2 mM, 5 mM, 10 mM, 20 mM, 40 mM and 50 mM respectively and EDTA in a molar ratio of 1.1:1 with the erbium chloride were prepared in the following manner for use in obtaining the data reported in Table I.
The volume was then brought to 75 ml with deionized water, and the materials were mixed in a plastic container. The solution pH was adjusted to 7.0 to 7.1 by adding sodium hydroxide solution. The osmolarity was then adjusted to physiological levels of about 300±10 mOs/L, the 100 ml volume being completed with deionized water. Carrier solutions were prepared within two hours of each experiment from stock solutions no more than one week old.
The above procedures were followed substituting the equivalent amount of dysprosium chloride for the erbium chloride in order to obtain the values reported in FIG. 1.

[3] = tested on: blood cells; test: Cell integrity during separation (lysis, morphology, clumping, hemoglobin state); assay type: cell-based, human; settings: 10 mM sodium dithionite
Experimental: In Table I, the filtration data at 0.75 ml/min is reported for whole blood diluted 1:101 with the working solution including erbium chelate at the indicated concentration. The matrix material was unannealed, 316L austenitic stainless wire, 35 micrometers in diameter, randomly packed to 11.4% of the filter volume. Table I summarizes experimental filtration data according to the concentration of Er(EDTA)^- in the carrier solution, and includes for comparative purposes, sodium dithionite at 10 mM final concentration as a substitute for the chelated lanthanide. The solution osmolarity was adjusted to that of 40 mM erbium chloride by addition of sodium chloride. In a second experiment, 10 mM sodium dithionite in isotonic saline buffered with phosphate was employed. […] Data for various field intensities are given for the higher chelate concentrations, all at constant flows of 0.75 ml/min. Carrier solutions used in each of the stated concentrations of the lanthanide chelate were prepared as described in Example 1.
Cellular hemoglobin remains in the oxygenated (and therefore the antagonistically diamagnetic) state throughout the separation process. Cell lysis was not detected. […] The cells were readily removed from the matrix by flushing with isotonic saline (0.9% NaCl by weight containing no metal chelate). […]

O=S([O-])S(=O)[O-].[Na+].[Na+] [Sodium dithionite, sodium dithionite]
cell separation [1]: approximately 70% | separation efficiency [1]: exceeding 85% | Magnetic efficiency, E ([2]; 10 mM, 0.30 T): 13.0% | Magnetic filtration, M ([2]; 10 mM, 0.30 T): 11.6% | Mechanical Filtration, F ([2]; 10 mM, 0.30 T): 11.0% | Total Filtration, T ([2]; 10 mM, 0.30 T): 22.6% | Magnetic efficiency, E ([2]; 10 mM, 1.00 T): 76.9% | Magnetic filtration, M ([2]; 10 mM, 1.00 T): 68.4% | Mechanical Filtration, F ([2]; 10 mM, 1.00 T): 11.0% | Total Filtration, T ([2]; 10 mM, 1.00 T): 79.4% | Magnetic efficiency, E ([2]; 50 mM, 0.48 T): 92.2% | Magnetic filtration, M ([2]; 50 mM, 0.48 T): 88.2% | Mechanical Filtration, F ([2]; 50 mM, 0.48 T): 4.3% | Total Filtration, T ([2]; 50 mM, 0.48 T): 92.5% | Magnetic efficiency, E ([2]; 50 mM, 1.00 T): 98.4% | Magnetic filtration, M ([2]; 50 mM, 1.00 T): 94.1% | Mechanical Filtration, F ([2]; 50 mM, 1.00 T): 4.3% | Total Filtration, T ([2]; 50 mM, 1.00 T): 98.4% | separation efficiency ([2]; 0.3 Tesla, 430 ferritic matrix, 40 mM chelate or 10 mM sodium dithionite, 0.75 ml/min (FIG. 1)): 37% | separation efficiency ([2]; 0.7 Tesla, 430 ferritic matrix, 10 mM sodium dithionite, identical flows): 90% | repeatable separations at efficiencies greater than 99% ([2]; 430 ferritic matrix): not practical | deoxygenation of hemoglobin [3]: deoxygenation was confirmed spectrophotometrically

O=N[O-].[Na+] [nitrite, sodium nitrite]
cell separation [1]: approximately 70% | separation efficiency [1]: exceeding 85%
